Where two headings read alike, the source gives them in different places.
Legend:
[1] = test system: HIV MDR 769 strain; assay: AV-Finder-HIV assay, multi-drug resistant HIV MDR 769 strain replication in HeLa cells; assay type: cell-based
Description: (§1) In order to study the viral replication in vitro, the GenPhar AV-Finder™-HIV Drug Discovery Assay was used, a novel technology that consists of two components: (1) a cloned, continuous-passage HeLa cell line containing an HIV-1 tat-activated molecular switch and a Green Fluorescent Protein reporter gene and (2) a recombinant adenovirus (rAd) vector containing the genes for all three of the HIV-1 receptor/co-receptors (CD4, CXCR4, and CCR5) to transduce into HeLa cells and convert them into highly susceptible HIV-1 indicator cells for use in the assay. The indicator cells over-express the HIV-1 receptor genes and are readily infected with any HIV-1 strain or isolate. All HIV-1 strains tested thus far, regardless of co-receptor preference, and all subtypes or classes of HIV-1 will infect these indicator cells. Infected cells fluoresce brightly so that the inhibition of virus replication by potential antiviral drugs can be readily detected and quantified using standard laboratory plate reader technology.
(§2) Detector plates are set up at day 1 by adding HeLa cells (3000/well) to the adenovirus AD-3R in DMEM containing CCS in 96-well plates and incubated at 37° C. under 95% humidity and 5% CO2 for 2 days. […] At day 4, the medium was replaced by fresh medium containing the corresponding concentration of the compounds of interest. The infectivity was assessed by measuring the fluorescence on each well at day 7 ([…]). […] At day 5, the medium was replaced by fresh medium containing the corresponding concentration of compounds of interest and the infectivity was assessed by measuring the fluorescence on each well at day 8. Results are expressed as percentage of inhibition of the viral replication.

[2] = test system: HIV-1 IIIB; assay: GenPhar AV-Finder-HIV Drug Discovery Assay, HIV-1 IIIB replication in HeLa indicator cells; assay type: cell-based; conditions: for IC50: read-out: IC50 of HIV replication inhibition
Description: as §1, with “All HIV-1 strains tested thus far, regardless of co-receptor preference, and all subtypes or classes of HIV-1 will infect these indicator cells.” left out
as §2
(4-amino-phenyl)-(1-aza-bicyclo[2.2.2]oct-4-yl)-methanone (FIG. 1) was used either alone dissolved in water (SP003) or in an aqueous formulation (SP003A) containing zinc sulfate heptahydrate and ascorbic acid at the ratio of 26.6/1/1.6 (for example 200 mg SP003 with 7.5 mg of zinc sulfate heptahydrate and 12.5 mg of ascorbic acid; Xu, J. et al., J. Pharmacol. Exper. Ther., (2003) 307:1148-1157.

[3] = test system: HeLa cells; assay: MTT cytotoxicity assay (mitochondrial integrity)
Description: Following the above described cell treatment protocol, the levels of cellular 3-(4,5-dimehtylthiazol-2-yl)-2,5-diphenyl tetrazolium bromide (MTT) reduction, a measure of mitochondrial integrity, were determined in order to examine whether the compounds tested were cytotoxic.

Cc1cn([C@H]2C[C@H](N=[N+]=[N-])[C@@H](CO)O2)c(=O)[nH]c1=O [AZT, reference compound]
inhibition of HIV MDR 769 strain replication (in words) ([1]; without pre-medication, FIG. 5): not effective
curve plateau, inhibition of viral replication ([2]; 24 hours pre-medication): around 40%
IC50 ([2]; 48 hours pretreatment, FIG. 4): 30 nM
IC50 ([3]; read-out: toxicity IC50 (MTT cytotoxicity assay)): 161000 nM

Nc1ccc(C(=O)C23CCN(CC2)CC3)cc1 [SP003, (4-Amino-phenyl)-(1-aza-bicyclo[2.2.2]oct-4-yl)-methanone]
IC50 ([1]; Human immunodeficiency virus 1, HeLa, read-out: IC50 of HIV MDR 769 viral replication inhibition): 0.01 nM
inhibition of HIV MDR 769 viral replication ([1]; without pre-medication, FIG. 5): 60%
inhibition of HIV replication ([2]; 48 hours pretreatment, FIG. 4): 50%
IC50 ([2]; Human immunodeficiency virus 1, IIIB, HeLa, 48 hours pretreatment, FIG. 4): 0.03 nM
inhibition of HIV-1 IIIB viral replication (in words) ([2]; no pre-medication, HeLa cells, FIG. 2): higher efficiency than the classical antiviral agent ddI
inhibition of HIV-1 IIIB replication ([2]; no pre-medication, concentrations in the nanomolar range): up to 50%
cell toxicity (MTT cytotoxicity assay) ([3]; all concentrations tested, up to 100 μM): devoid of cell toxicity

O=c1[nH]cnc2c1ncn2[C@H]1CC[C@@H](CO)O1 [ddI]
IC50 [3]: 89000 nM

— patent US20080194619A1, “Anti-Hiv Quinuclidine Compounds” (priority 2004, published 2008)
